ChEMBL document CHEMBL1201862, “PubChem BioAssay data set” (2004)
Calls of active or inactive are those of the source.

Legend:
Cytochrome P450 3A4 = Cytochrome P450 3A4 (Homo sapiens, UniProt P08684); conditions: Potency;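 note: confirmatory qHTS run detecting inhibitors and substrates of CYP3A4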
cells [1] = assay type: functional, cell-based
cells [2] = assay type: functional, cell-based; remark: listed apart in the source
Paired box protein Pax-8 = Paired box protein Pax-8 (Homo sapiens, UniProt Q06710); assay: inhibitors of PAX8-driven TPO luciferase reporter, dose response, RMG-I cells, cherry-pick (AID 687027); assay type: functional, cell-based;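 note: luciferase reporter driven by Pax8 target thyroperoxidase promoter measured by SteadyGlo luminescence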
Paired box protein Pax-8, sequence (Q06710 whole entry): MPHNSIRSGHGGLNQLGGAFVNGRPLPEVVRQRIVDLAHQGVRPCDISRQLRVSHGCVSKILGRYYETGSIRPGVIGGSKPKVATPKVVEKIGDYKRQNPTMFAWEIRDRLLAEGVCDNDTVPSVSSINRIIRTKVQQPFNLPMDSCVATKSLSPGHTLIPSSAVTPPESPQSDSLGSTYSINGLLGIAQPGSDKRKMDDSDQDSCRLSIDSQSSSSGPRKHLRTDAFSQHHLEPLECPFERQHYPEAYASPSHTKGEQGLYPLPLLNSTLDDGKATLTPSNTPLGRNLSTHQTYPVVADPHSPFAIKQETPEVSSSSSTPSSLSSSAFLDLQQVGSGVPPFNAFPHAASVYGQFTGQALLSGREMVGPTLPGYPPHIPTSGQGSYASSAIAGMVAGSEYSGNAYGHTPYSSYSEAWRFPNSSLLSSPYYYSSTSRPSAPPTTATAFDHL

[3] = cytotoxicity in OVCAR8 ovarian cancer cells, dose response, PAX8 project, cell-based, plate reader, dry powder samples (AID 743197); assay type: functional; conditions: OVCAR-8
[4] = target: Heat shock protein HSP 90-alpha (Homo sapiens, UniProt P07900); assay type: functional, organism-based
[5] = target: Induced myeloid leukemia cell differentiation protein Mcl-1 (Homo sapiens, UniProt Q07820); assay type: functional
Induced myeloid leukemia cell differentiation protein Mcl-1, sequence (Q07820 whole entry): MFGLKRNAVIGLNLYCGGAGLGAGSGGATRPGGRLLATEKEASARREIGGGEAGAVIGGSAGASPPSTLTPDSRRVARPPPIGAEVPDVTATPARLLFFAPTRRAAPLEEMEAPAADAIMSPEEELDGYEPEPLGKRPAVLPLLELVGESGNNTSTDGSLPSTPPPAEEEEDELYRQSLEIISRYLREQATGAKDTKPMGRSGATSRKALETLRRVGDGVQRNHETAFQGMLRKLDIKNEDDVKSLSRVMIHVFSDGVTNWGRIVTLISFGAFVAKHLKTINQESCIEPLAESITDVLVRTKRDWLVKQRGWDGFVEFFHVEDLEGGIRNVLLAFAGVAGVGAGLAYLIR

[6] = target: T1, Mannose-6-phosphate isomerase (Homo sapiens, UniProt P34949); assay: human PMI inhibitors, high substrate, primary screen, biochemical, fluorescence intensity, high mannose 6-phosphate (AID 1220)
T1 sequence (P34949 whole entry): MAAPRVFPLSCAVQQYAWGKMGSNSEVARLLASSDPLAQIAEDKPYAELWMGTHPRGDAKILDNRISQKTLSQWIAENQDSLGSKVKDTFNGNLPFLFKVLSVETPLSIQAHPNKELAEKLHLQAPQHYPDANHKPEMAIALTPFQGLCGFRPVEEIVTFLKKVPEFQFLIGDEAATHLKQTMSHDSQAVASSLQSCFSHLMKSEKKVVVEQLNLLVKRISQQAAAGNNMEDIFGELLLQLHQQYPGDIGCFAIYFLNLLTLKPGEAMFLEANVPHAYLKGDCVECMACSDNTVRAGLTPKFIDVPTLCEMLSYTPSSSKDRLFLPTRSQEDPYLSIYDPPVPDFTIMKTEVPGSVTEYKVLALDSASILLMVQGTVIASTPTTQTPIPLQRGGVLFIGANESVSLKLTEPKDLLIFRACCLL

[7] = inhibitors of HIV Env-driven cell fusion, dose response, cherry-pick (AID 652057); assay type: functional, cell-based
[8] = ZM109 Env clade C HIV-1 fusion inhibitors, dose response, HeLa effector, CEM target cells, luciferase, cherry-pick (AID 652058); assay type: functional, cell-based
[9] = off-target signal loss in HeLa-CEM21 co-culture – HeLa F-luc CTL cells, cherry-picked, counter-screen for HIV-1 Env fusion inhibitor project, dose response (AID 652040); assay type: functional, cell-based;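 note: potency for signal decrease marking cytotoxic or nonspecific inhibition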
[10] = inhibitors of clade B AD8 Env fusion, dose response, cell-based, cherry-pick (AID 652062); assay type: functional;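 note: luciferase signal from cell-cell fusion driven by HIV-1 clade B AD8 Env; potency is for inhibitors of fusion seen as a drop in luminescence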
Leucine aminopeptidase = target: T2, Leucine aminopeptidase (Plasmodium falciparum 3D7, UniProt Q8IL11); assay: P. falciparum M17LAP inhibitors, primary screen, biochemical, fluorogenic H-Leu-NHMec substrate, 1536-well (AID 1619); assay type: functional
T2 sequence (Q8IL11 whole entry): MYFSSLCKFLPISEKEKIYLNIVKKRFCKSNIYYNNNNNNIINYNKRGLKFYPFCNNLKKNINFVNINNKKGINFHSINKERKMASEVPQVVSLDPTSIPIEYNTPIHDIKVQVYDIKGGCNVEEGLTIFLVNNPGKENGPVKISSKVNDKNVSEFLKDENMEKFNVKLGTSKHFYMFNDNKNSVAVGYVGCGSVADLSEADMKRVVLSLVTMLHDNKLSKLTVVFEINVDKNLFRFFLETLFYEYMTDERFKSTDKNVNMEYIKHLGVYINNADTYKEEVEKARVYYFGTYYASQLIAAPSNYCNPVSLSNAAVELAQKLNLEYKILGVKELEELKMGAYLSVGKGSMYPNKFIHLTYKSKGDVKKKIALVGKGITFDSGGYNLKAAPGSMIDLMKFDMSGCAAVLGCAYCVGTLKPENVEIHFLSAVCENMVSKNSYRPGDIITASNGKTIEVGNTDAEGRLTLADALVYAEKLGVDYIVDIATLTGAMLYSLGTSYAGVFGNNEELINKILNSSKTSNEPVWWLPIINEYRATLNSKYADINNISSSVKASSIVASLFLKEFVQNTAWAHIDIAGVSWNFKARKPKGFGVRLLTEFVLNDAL

Genome polyprotein = Genome polyprotein (dengue virus type 2, UniProt P29990); assay: Dengue-2 NS5 methyltransferase inhibitors, primary screen, biochemical, confirmation dose response (AID 588689); assay type: functional
Genome polyprotein, sequence (P29990 2492-3391 limits assumed): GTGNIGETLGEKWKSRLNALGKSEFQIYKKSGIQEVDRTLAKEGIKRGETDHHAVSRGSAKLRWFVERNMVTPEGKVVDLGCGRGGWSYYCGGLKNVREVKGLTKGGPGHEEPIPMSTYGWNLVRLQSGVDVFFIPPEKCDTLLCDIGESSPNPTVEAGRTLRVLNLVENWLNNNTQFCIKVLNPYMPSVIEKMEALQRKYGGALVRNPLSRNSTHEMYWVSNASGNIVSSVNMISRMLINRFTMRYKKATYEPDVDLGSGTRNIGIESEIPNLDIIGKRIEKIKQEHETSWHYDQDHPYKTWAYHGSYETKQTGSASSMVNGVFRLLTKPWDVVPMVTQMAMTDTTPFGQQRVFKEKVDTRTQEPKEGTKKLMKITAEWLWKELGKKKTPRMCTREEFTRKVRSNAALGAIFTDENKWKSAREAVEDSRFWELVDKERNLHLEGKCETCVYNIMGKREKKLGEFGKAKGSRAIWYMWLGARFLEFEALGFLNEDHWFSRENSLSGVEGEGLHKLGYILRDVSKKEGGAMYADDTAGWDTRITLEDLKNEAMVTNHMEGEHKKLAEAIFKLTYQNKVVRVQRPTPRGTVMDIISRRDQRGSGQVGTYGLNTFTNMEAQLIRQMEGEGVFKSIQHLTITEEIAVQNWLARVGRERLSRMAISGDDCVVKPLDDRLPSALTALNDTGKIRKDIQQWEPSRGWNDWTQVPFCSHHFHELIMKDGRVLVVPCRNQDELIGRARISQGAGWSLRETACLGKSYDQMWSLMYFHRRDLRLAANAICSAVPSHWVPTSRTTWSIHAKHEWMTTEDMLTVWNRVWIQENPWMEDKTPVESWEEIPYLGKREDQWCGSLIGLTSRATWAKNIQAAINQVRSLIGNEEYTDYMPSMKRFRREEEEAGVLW

[11] = non-specific cell cytotoxicity, dose response, cytotoxicity control for PAX8 inhibitor project, plate reader, dry powder samples (AID 743021); assay type: functional, cell-based
[12] = THP-1 cell cytotoxicity, dose response, cytotoxicity control for non-replicating M. tuberculosis project (AID 489025); assay type: functional
cells [13] = assay type: functional
[14] = Shn3 3'UTR reporter inhibitors, dose response, cell-based, Clone20 osteoblasts, firefly luciferase, cherry-picked (AID 624132); assay type: functional;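 note: firefly luciferase luminescence from reporter carrying the Shn3 3'UTR in osteoblasts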
[15] = control 3'UTR Renilla luciferase suppression, dose response, counter-screen for Shn3 inhibitor project, cell-based, Clone20-Shn3RL, cherry-picked (AID 624133); assay type: functional
Cytochrome P450 1A2 = target: T3, Cytochrome P450 1A2 (Homo sapiens, UniProt P05177);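 note: PubChem cytochrome P450 panel assay, CYP1A2 panel member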
T3 sequence (P05177 whole entry): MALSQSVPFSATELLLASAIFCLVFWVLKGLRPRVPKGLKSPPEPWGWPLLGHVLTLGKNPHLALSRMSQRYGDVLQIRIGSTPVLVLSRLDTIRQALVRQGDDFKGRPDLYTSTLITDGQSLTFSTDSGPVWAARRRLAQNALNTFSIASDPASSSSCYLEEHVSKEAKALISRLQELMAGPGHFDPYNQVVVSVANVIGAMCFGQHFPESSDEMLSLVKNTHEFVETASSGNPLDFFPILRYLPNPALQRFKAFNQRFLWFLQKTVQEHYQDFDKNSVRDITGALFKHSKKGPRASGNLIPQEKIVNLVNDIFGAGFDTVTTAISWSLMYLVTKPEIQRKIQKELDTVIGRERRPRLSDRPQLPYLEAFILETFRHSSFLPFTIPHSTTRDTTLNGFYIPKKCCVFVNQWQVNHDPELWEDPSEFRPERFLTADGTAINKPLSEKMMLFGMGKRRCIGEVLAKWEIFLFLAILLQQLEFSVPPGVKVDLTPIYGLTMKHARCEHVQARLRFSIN

Cytochrome P450 3A4, sequence (P08684 whole entry): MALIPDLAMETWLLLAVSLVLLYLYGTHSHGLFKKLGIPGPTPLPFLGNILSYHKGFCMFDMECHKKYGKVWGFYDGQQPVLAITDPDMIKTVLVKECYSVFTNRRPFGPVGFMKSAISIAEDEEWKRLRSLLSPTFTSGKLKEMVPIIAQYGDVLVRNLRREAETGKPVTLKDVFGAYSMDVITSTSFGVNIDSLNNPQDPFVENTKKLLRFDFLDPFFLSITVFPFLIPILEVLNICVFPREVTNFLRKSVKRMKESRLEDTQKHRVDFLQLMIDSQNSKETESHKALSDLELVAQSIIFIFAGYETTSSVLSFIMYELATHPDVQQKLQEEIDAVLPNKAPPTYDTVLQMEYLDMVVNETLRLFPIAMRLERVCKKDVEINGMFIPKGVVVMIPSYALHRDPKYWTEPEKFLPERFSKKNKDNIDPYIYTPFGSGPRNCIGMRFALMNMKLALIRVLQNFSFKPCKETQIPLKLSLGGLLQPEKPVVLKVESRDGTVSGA

## COCCNc1nc(C)nc2c1nc(-c1ccccc1)n2CCCN1CCCCC1C (stereo not drawn)
Cytochrome P450 3A4
  AC50: 3.98 µM (inconclusive)

## CC1(C)CC[C@]2(C(=O)O)CC[C@]3(C)C(=CCC4[C@@]5(C)CC[C@H](O)C(C)(C)C5[C@H](O)C[C@]43C)C2C1 (stereo partly drawn)
Cytochrome P450 3A4
  AC50: 25.1 µM (inconclusive)

## COc1ccc(OC)c(NC(=O)CCc2nnc3ccc(NCc4ccco4)nn23)c1
Cells [1]
  EC50: > 350 µM (not active)
Cells [2]
  EC50: > 350 µM (not active)

## C[C@@H]1CCCCO[C@@H](CN(C)Cc2ccccc2)[C@H](C)CN([C@H](C)CO)C(=O)c2cc(NC(=O)Nc3ccc(C(F)(F)F)cc3)ccc2O1
Paired box protein Pax-8
  AC50: 4.61 µM (active)
[3]
  AC50: > 70 µM (inactive)

## COC(=O)c1ccc(N2C(=O)CC(N3CCC(O)(c4ccc(Br)cc4)CC3)C2=O)cc1 (stereo not drawn)
[4]
  AC50: 2.85 µM (active)

## CN(C)c1ccc(NC(=O)/C=C/c2ccccc2Cl)cc1
[5]
  IC50: > 54 µM (active)

## NC(=S)NNC(=O)c1cc(C(F)(F)F)cc(C(F)(F)F)c1
Cells [1]
  EC50: > 350 µM (not active)
Cells [2]
  EC50: > 350 µM (not active)

## COCCN1C(=O)Cc2c1nc(N)c1c(N)nc(N3CCN(c4ccc(F)cc4)CC3)c(C#N)c21
[6]
  IC50: > 50 µM (not active)

## COC(=O)C1(C(=O)OC)C[C@H](c2ccc(OC)cc2)N(Cc2ccccc2OC)[C@@H]1c1ccccc1
[7]
  AC50: 1.37 µM (active)
[8]
  AC50: 1.58 µM (active)
[9]
  AC50: 2.48 µM (active)
[10]
  AC50: 8.22 µM (active)

## CCOC(=O)c1c(-c2ccc(C)c(C)c2)csc1NC(=O)C1CC=CCC1C(=O)O (stereo not drawn)
Leucine aminopeptidase
  IC50: 10.3 µM (active)
Genome polyprotein
  IC50: 43.5 µM (active)

## COc1ccc(-c2nnc(SCC(=O)Oc3ccc(C)cc3)o2)cc1
[4]
  AC50: 2.53 µM (active)

## CCc1ccc(NC(=O)COC(=O)c2cccs2)cc1
Cells [1]
  EC50: > 350 µM (not active)
Cells [2]
  EC50: 79.4 µM (active)

## COc1ccccc1N1CCN(CCCNC(=O)C2CCCN(c3ncnc4c3nc3n4CCCCC3)C2)CC1 (stereo not drawn)
Cells [1]
  EC50: > 350 µM (not active)
Cells [2]
  EC50: > 350 µM (not active)

## CC1(Cc2ccc(Cl)cc2)C(=O)Nc2ccc(S(=O)(=O)NC3CCCCC3)cc21 (stereo not drawn)
[7]
  AC50: 0.396 µM (active)
[8]
  AC50: 1.12 µM (active)
[9]
  AC50: 1.04 µM (active)
[10]
  AC50: 0.674 µM (active)

## COc1cccc(C(=O)Nc2cc(Cl)c(O)c(Cl)c2)c1
[5]
  IC50: 3.46 µM (not active)

## CCCNC(=O)Nc1ccc2c(c1)OC[C@@H](C)N(Cc1ccc(-c3ccccn3)cc1)C[C@@H](C)[C@H](OC)CN(C)C2=O
Paired box protein Pax-8
  AC50: 30.1 µM (active)
[11]
  AC50: 41.7 µM (active)

## CN1CC(=O)N=C1NC(=O)C12CC3CC(CC(C3)C1)C2
[12]
  CC50: > 40 µM (active)
Cells [13]
  IC50: 23.9 µM (active)

## COC(=O)c1cccc(C23CC4(C2)[C@H](CN(C)[C@@H]4c2ccccc2)C3c2ccc(Cl)nc2)c1 (stereo partly drawn)
Cytochrome P450 3A4
  AC50: 5.01 µM (inconclusive)

## COC(=O)c1cc(OC)c(=O)c2c(OC)c(OC)ccc2c1 [METHYL 7-DESOXYPURPUROGALLIN-7-CARBOXYLATE TRIMETHYL ETHER]
Cytochrome P450 3A4
  AC50: 39.8 µM (inconclusive)

## CCCCCCN1C[C@H](n2cc(-c3ccc(F)cc3)nn2)[C@@H](O)C[C@@H]1c1ccc(Cl)cc1
[14]
  AC50: 10.3 µM (active)
[15]
  AC50: 25.8 µM (active)

## CC1(C)CCC2(C(=O)O)CC[C@]3(C)C(=CCC4[C@]5(C)CCC(O)C(C)(C)C5C(O)C[C@]43C)C2C1 (stereo partly drawn)
Cytochrome P450 3A4
  AC50: 2.51 µM (inconclusive)

## O=c1cc(-c2ccccc2O)oc2c(O)c(O)ccc12
Cytochrome P450 3A4
  AC50: 31.6 µM (inconclusive)

## CN(CCO)c1nc(N)c2c(N)nc3c(c2c1C#N)CC(=O)N3C1CCCC1
[6]
  IC50: > 50 µM (not active)
Cytochrome P450 1A2
  AC50: 2.82 µM (inconclusive)

## CCN(/N=C/c1ccc(N(C)C)cc1)c1nc2ccccc2[nH]1
[5]
  IC50: 1.44 µM (active)

## Cc1cc(=O)oc2c3c(cc(OCC(=O)Nc4ccc(CCO)cc4)c12)OC(C)(C)CC3
[14]
  AC50: > 70 µM (inactive)
[15]
  AC50: > 70 µM (inactive)

## Cc1nnc(C)n1/N=C/c1cc(Br)cc(Br)c1O
[4]
  AC50: 1.68 µM (active)

## CCOc1ccc(N2C(=O)CC(Sc3nc(C)cc(C)n3)C2=O)cc1 (stereo not drawn)
Cells [1]
  EC50: > 350 µM (not active)
Cells [2]
  EC50: > 350 µM (not active)

## CCOc1cc2c(C#N)c(N3CCCCC3)nc(N)c2c(N)n1
[6]
  IC50: > 50 µM (not active)

## CC(C)(O)C(=O)Nc1ccc([N+](=O)[O-])c(C(F)(F)F)c1 [HYDROXYFLUTAMIDE]
Cytochrome P450 3A4
  AC50: 25.1 µM (inconclusive)

## CCCCCCC(=O)N(O)C1CC(=O)N(c2ccc(Cl)cc2)C1=O (stereo not drawn)
[4]
  AC50: 1.64 µM (active)
